The source of these data is US20060223779A1, “Method of screening for inhibitors of human Fatty Acid-CoA Ligase 4” (priority 2000, published 2006).

Assay [1] relates to 293 cells. The assay can be described thus: Apoptosis by Cell Death Detection ELISA in 293 cells. It counts as cell-based, human. The conditions noted are these: 44 hr. As to the method: (§1) FIG. 3: Arachidonic acid induces apoptosis via activation of caspase 3. (A) Determination of cell survival. AA was added to 293 cells at the indicated concentrations and the surviving fraction of cells was determined after 44 hr. The values shown are relative to the viability of cells that were not exposed to AA. (B) Increased apoptosis in cells exposed to AA. Cells were treated with AA (300 μM) or palmitic acid (300 μM) under the same conditions as in A, and then apoptosis was detected with an ELISA. The mean values from triplicate determinations are shown. […] The 293 cells were treated with AA (300 μM; +AA) or vehicle alone (−AA) for 44 hr. The nuclei were stained with DAPI, and DNA strand breaks in individual cells were detected with a fluorescent TUNEL assay. The upper panels are the same field of cells (−AA) photographed under UV (left panels) and FITC filters (right panels). The lower panels illustrate apoptotic cells (+AA). The magnification is 80×. (D) Immunostaining with an anti-active caspase 3 antibody. Upper panels, control cells (−AA); lower panels, cells exposed to 300 μM AA. Left panels, DAPI staining; right panels, immunostaining with an antibody selective for active caspase 3. The magnification is 100×. […] The 293 cells were preincubated with caspase inhibitors (including DMQD, a caspase 3 inhibitor, and YVAD, a caspase 1 and 4 inhibitor (Peptide Institute)) for 1 hr at the indicated concentrations, AA (300 μM) was added, and apoptosis was determined 44 hr later. The values represent the means from triplicate determinations.
(§2) Cell Death Detection ELISA. Cells were plated on 96 well-plates at 1×10^4 cells per well. AA was applied and apoptotic death was determined after 44 hr with the Cell Death Detection ELISA (Boehringer Mannheim).
In general terms: An ELISA detects its analyte on a solid surface through an enzyme-linked reagent.

For assay [2], the system named is 293 cells. The assay can be described thus: Lipid peroxidation assay (MDA and 4-HNE) in 293 cells. It counts as cell-based, human. As to the method: FIG. 6: Cells exposed to AA show increased lipid peroxidation; apoptosis is blocked by antioxidants and Bcl-2. (A) The level of lipid oxidation products. The 293 cells were treated with AA at the indicated concentrations for 48 hr. The data presented are from one experiment that is representative of two independent experiments. […] Antioxidants were applied to 293 cells at the indicated concentration for 1 hr, and then AA (200 μM) was added. Apoptosis was determined after 44 hr and is shown relative to the level in control cells. […] Cells were transfected with the empty vector (Ctl) or with a cDNA encoding Bcl-2 and then were exposed to AA (300 μM). The level of apoptosis was determined after 44 hr. The values shown indicate the apoptosis level relative to control cells, and represent the means of triplicate determinations (P<0.05). The expression of Bcl-2 was detected by Western blotting. (D) The level of Bcl-2 expression in the stable cells. The stably transfected cells were induced, or not, with ponasterone for 24 or 48 hr. Cell lysates were blotted with an antibody to Bcl-2. Normalization was performed with an anti-β-actin antibody.
Lipid peroxidation assay. Cells were plated and treated with AA for 48 hr. […] The cellular malondialdehyde (MDA) and 4-hydroxynonenal (4-HNE) levels were determined with the lipid peroxidation assay kit (Calbiochem).

The subject of assay [3] is FACL4/COX-2 double stable cells. Briefly: Cell survival of FACL4/COX-2 double stable cells after TNFα or A23187. It counts as cell-based, human. The conditions noted are these: TNFα 1 ng/ml or A23187 5 μM, 72 hr, n=3. As to the method: (§3) FIG. 5: Enzymatic “sinks” for free arachidonic acid protect against TNFα_ and calcium ionophore_mediated cell killing. (A) Determination of cell survival. The cells were induced (+Pon) or not (−Pon) for 24 hr, and TNFα (1 ng/ml) or the calcium ionophore A23187 (5 μM) was added, and the cells were incubated for another 72 hr. The surviving fraction was determined and is plotted relative to that of the same line without TNFα or A23187 treatment. Ctl denotes control cells harboring an empty vector, while FACL4/COX-2 denotes the double stable line. (B) Measurement of the free AA. The FACL4/COX-2 cells were prelabeled with [^3H] AA, induced, and stimulated with A23187 (5 μM), and [^3H] AA release was measured at the indicated time intervals. The values are from one experiment that is representative of four independent determinations.
Stable cell lines. The ecdysone inducible system (Invitrogen) was used to construct stable lines over-expressing human FACL4, COX-2, COX-2 mutant, and both FACL4 and COX-2. […] The cDNAs were cloned into pIND(SP1) (Neomycin^r). The cDNA constructs, or the empty vector pIND(SP1) were transfected into EcR293 cells, which were then selected in 400 μg/ml geneticin and 400 μg/ml zeocin. A number of single colonies were screened for over-expression of FACL4, COX-2 wild type, and COX-2 mutant by immunoblotting against anti-FACL4 (See Y. Cao et al., 467 FEBS Lett. 263-267 (2000)), and anti-COX-2 antibodies (a gift from Dr. Jacques Maclouf), and by measurement of the CoA ligase activity for FACL4 (See D. B. Wilson et al., 257 J. Biol. Chem. 3510-3515 (1992)), or the PGE2 secretion for COX-2 wild type (ELISA assay, Assay Design, Inc.). The double stable line was generated by stably transfecting the COX-2 stable cells with another pIND(SP1)-FACL4 cDNA construct, in which the FACL4 cDNA was cloned into a pIND(SP1) (hygromycin^r) vector. The cells were selected in 400 μg/ml geneticin, 400 μg/ml zeocin, and 50 μg/ml hygromycin B. The positive colonies were screened as described above.
(§4) Cell survival. Cell viability was determined with the crystal violet staining (See M. Hayakawa et al., 268 J. Biol. Chem. 11290-11295 (1993).

In assay [4] the test system is FACL4/COX-2 cells. Briefly: [3H] arachidonic acid release after A23187 (pulse-chase). The class given is cell-based, human. The conditions noted are these: A23187 5 μM. As to the method: as §3
Arachidonic acid release. Cells were plated on 6 well-plates precoated with poly-L-lysine at 8×10^5 cells per well. They were then prelabeled with [^3H] AA (0.4 μCi/ml medium) (91.8 Ci/mmol, 100 μCi/ml, NEN) for 24 hr. After a wash, serum-free DMEM supplemented with 1% BSA (fatty acid free) was added. […] The AA release stimulated by A23187 was calculated by subtracting the released AA by unstimulated cells, from that by A23187-stimulated counterparts.

The test system of assay [5] is 293 cells. The assay can be described thus: Cell survival (crystal violet staining) in 293 cells. It counts as cell-based, human. The conditions noted are these: 293 cells, increasing exogenous AA concentration, 44 hr. As to the method: as §1, §4
Assay [6] deals with caspase 3. Briefly: Caspase 3-like activity in AA-treated cells. The class given is cell-based. Particulars: not shown.
Assay [7] has as its system COX-2 stable 293 cells. The assay can be described thus: Apoptosis in stably transfected 293 cells with inducible COX-2 over-expression. The class given is cell-based, human. As to the method:
(A) Conditional expression level of FACL4 and COX-2 in stably transfected lines. Cells were treated with (+) or without (−) ponasterone (1 μg/ml) for 48 hr, and Western blotting was carried out with anti-FACL4 and anti-COX-2 antibodies, respectively. The loading was normalized with an anti-β actin antibody (ICN Biomedicals). […] The 293 cells stably transfected with an empty control vector (Ctl), FACL4 cDNA, COX-2 cDNA, and both FACL4 and COX-2 cDNAs were uninduced (−Pon) or induced for over-expression (+Pon) as in A. AA (300 μM) was added after 24 hr of induction and apoptosis was determined 44 hr later. […] The plot is a comparison of the relative apoptosis levels among the stable lines and is representative of three independent experiments. The values shown are the averages of triplicate determinations. […] Cells were uninduced (−Pon) or induced for over-expression as above. […] COX inhibitors were administered 6 hr later as indicated. AA (300 μM) was then added after 2 hr and apoptosis was determined 44 hr later. The plot is prepared as in B, and is a representative result from three independent experiments, in which triplicates were performed. Wt=wild-type, Mut=mutant, Met=50 μM 6-methoxy-2-naphthyl acetic acid, Indo=10 μM indomethacin. […] The COX-2, FACL4/COX-2 stable and control cells carrying an empty vector were induced for 48 hr, washed and incubated with 20 μM AA at 37° C. for 30 min. The amount of PGE2 synthesized was determined by ELISA. […] (E) The levels of free AA in the stable lines. The [^3H]
as §2
Stable cell lines. The ecdysone inducible system (Invitrogen) was used to construct stable lines over-expressing human FACL4, COX-2, COX-2 mutant, and both FACL4 and COX-2. […] The cDNAs were cloned into pIND(SP1) (Neomycin^r). The cDNA constructs, or the empty vector pIND(SP1) were transfected into EcR293 cells, which were then selected in 400 μg/ml geneticin and 400 μg/ml zeocin. […] The double stable line was generated by stably transfecting the COX-2 stable cells with another pIND(SP1)-FACL4 cDNA construct, in which the FACL4 cDNA was cloned into a pIND(SP1) (hygromycin^r) vector. The cells were selected in 400 μg/ml geneticin, 400 μg/ml zeocin, and 50 μg/ml hygromycin B. The positive colonies were screened as described above.

On to z-DMQD-fmk, for which the “blocking of AA-induced apoptosis by caspase inhibitor” value in assay [1] (293 cells preincubated 1 hr with inhibitor, AA 300 μM) is given as “significantly blocked apoptosis”. Moreover, in assay [2] (AA-exposed cells, not shown), the “effect on generation of peroxidized lipids” value is on record as “did not block the generation of peroxidized lipids”.
As to `CNc1ccc2oc(C[C@H]3O[C@@]4(CC[C@H]3C)O[C@H]([C@H](C)C(=O)c3ccc[nH]3)[C@H](C)C[C@H]4C)nc2c1C(=O)O` [A23187], in assay [3] (FACL4/COX-2 double stable cells induced with ponasterone), the “surviving fraction, induced cells” value was 67.8%. For the same compound, the “surviving fraction, uninduced cells” value in assay [3] (FACL4/COX-2 double stable cells without induction) stood at 37.8%. Also, in assay [4] (control cells), the “AA release to the medium in response to A23187, control cells” value was “released a large amount of AA”. For the same compound, the “AA release to the medium in response to A23187, over-expression of FACL4 and COX-2” value in assay [4] (induced FACL4/COX-2 cells) was “completely abolished”.
Turning to `CCCCC/C=C\C/C=C\C/C=C\C/C=C\CCCC(=O)O` [AA, Arachidonic acid], the “apoptosis (mono- and oligo-nucleosomes) over the control” value in assay [1] (293 cells, 300 μM) is 18 fold. For the same compound, the “cell survival, % of the control” value in assay [5] is 23%. Besides, in assay [6], the “maximal increase in caspase 3-like activity compared to control cells” value is recorded as about 4.5 fold and the “time of peak caspase 3-like activity” value turned out to be 17 h. Also, in assay [7] (200 μM), the “fold-increase in apoptosis after fatty acid treatment” value came to 8.5 fold. Also, the “reduction of fatty acid-induced apoptosis by inducing COX-2 over-expression” value in assay [7] (COX-2 over-expression induced, n=3) worked out at 36.7%. Further, the “formation of lipid peroxidation products” value in assay [2] (293 cells exposed to AA, 48 hr) was “enhanced formation of malondialdehyde and 4-hydroxy-2(E)-nonenal”.
